Data on 1 compound can be found in paper PMC7287031 (Pharmacology Research & Perspectives, 2020).

The structures appear in SMILES notation.

The test system of one data set is human liver microsomes. The experiment in a line: Enzyme kinetics of total oxidative metabolism in pooled human liver microsomes. Particulars: pooled HLM, Michaelis-Menten model. Format: in vitro ADME. The method, then:
(§1) In vitro incubations were carried out in 100‐mM potassium phosphate buffer (pH 7.4) and 5‐mM MgCl2 with a total volume of 200 µL. Substrate and either human liver microsomes (HLM, BD Biosciences, mixed gender pool of n = 50) or recombinant human enzymes (BD Biosciences) were added and pre‐incubated for 3 minutes at 37°C. The reaction was started by addition of a fresh solution of NADPH (1 mmol/L final concentration). The samples were incubated at 37°C with agitation of 500 rpm. For incubations with CYP2A6, CYP2C9, CYP2C18, and CYP4A11, the phosphate buffer was replaced by TRIS buffer (100 mmol/L, pH 7.4) and for flavin‐containing monooxygenases (FMOs), a glycine buffer (50 mM, pH 9.5) was used.
(§2) The enzymatic reaction was stopped and the protein was precipitated by addition of an equal volume of methanol. After 30 min at −80°C, the samples were centrifuged at 30'000 x g for 15 min. The supernatant was withdrawn. Aliquots were analyzed by LSC and the supernatant was diluted with water to obtain a final solution containing less than 20% of the organic solvent. […] Samples were analyzed by HPLC combined with radiodetection.
(§3) Km and Vmax parameters were calculated by using SigmaPlot Version 8.0, Enzyme Kinetics module Version 1.1 software (SPSS Science Inc, Chicago, IL, USA). The intrinsic clearance was calculated by the equation: CLint = Vmax/Km.

Experiment in data set [1]: as above
Format: in vitro ADME. Particulars: both sexes, human, pooled human liver microsomes, pH 7.4; pooled HLM, Michaelis-Menten model. The method, then:
as §1, §2, §3

The Km is the concentration of substrate that gives half-maximal velocity. Take `CN(C)C(=O)c1cc2cnc(Nc3ccc(N4CCNCC4)cn3)nc2n1C1CCCC1` [ribociclib, Ribociclib]: the “Vmax, total metabolism” value in the data set on human liver microsomes amounted to 766 ± 13 pmol/min/mg. Besides, the Michaelis-Menten constant (Km) in data set [1] is 29.1 ± 1.8 µM.
